From PubChem BioAssay (NCI)
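In this assay, cells in 96-well plates receive the compound at five concentrations for 48 hours. Endpoints are linearly interpolated between the surrounding concentrations. At the GI50, growth is halved. TGI marks complete inhibition of growth.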

Assays:
Experiment in all cases: DTP human tumour cell line panel, 48 h
DU-145 prostate = test system: DU-145 prostate
SF-295 CNS = test system: SF-295 CNS
LOX IMVI melanoma = test system: LOX IMVI melanoma
COLO 205 colon = test system: COLO 205 colon
HL-60(TB) leukemia = test system: HL-60(TB) leukemia
MALME-3M melanoma = test system: MALME-3M melanoma
OVCAR-4 ovarian = test system: OVCAR-4 ovarian
KM12 colon = test system: KM12 colon
CAKI-1 renal = test system: CAKI-1 renal
UO-31 renal = test system: UO-31 renal
MOLT-4 leukemia = test system: MOLT-4 leukemia
PC-3 prostate = test system: PC-3 prostate
A549 NSCLC = test system: A549 NSCLC
SNB-75 CNS = test system: SNB-75 CNS
SW-620 colon = test system: SW-620 colon
SK-OV-3 ovarian = test system: SK-OV-3 ovarian
SK-MEL-5 melanoma = test system: SK-MEL-5 melanoma
ACHN renal = test system: ACHN renal
786-0 renal = test system: 786-0 renal
HS 578T breast = test system: HS 578T breast
U251 CNS = test system: U251 CNS
HOP-92 NSCLC = test system: HOP-92 NSCLC
UACC-62 melanoma = test system: UACC-62 melanoma
MDA-MB-231 breast = test system: MDA-MB-231 breast
OVCAR-3 ovarian = test system: OVCAR-3 ovarian
HCT-15 colon = test system: HCT-15 colon
SF-268 CNS = test system: SF-268 CNS
OVCAR-5 ovarian = test system: OVCAR-5 ovarian
HCT-116 colon = test system: HCT-116 colon
HCC-2998 colon = test system: HCC-2998 colon
M14 melanoma = test system: M14 melanoma
HOP-62 NSCLC = test system: HOP-62 NSCLC
RXF 393 renal = test system: RXF 393 renal
NCI-H23 lung = test system: NCI-H23 lung
SR leukemia = test system: SR leukemia
OVCAR-8 ovarian = test system: OVCAR-8 ovarian
EKVX NSCLC = test system: EKVX NSCLC
NCI-H522 lung = test system: NCI-H522 lung
SN12C renal = test system: SN12C renal
TK-10 renal = test system: TK-10 renal
NCI-H226 lung = test system: NCI-H226 lung
NCI/ADR-RES ovarian = test system: NCI/ADR-RES ovarian
SK-MEL-28 melanoma = test system: SK-MEL-28 melanoma
UACC-257 melanoma = test system: UACC-257 melanoma
NCI-H460 lung = test system: NCI-H460 lung
SK-MEL-2 melanoma = test system: SK-MEL-2 melanoma
SF-539 CNS = test system: SF-539 CNS
BT-549 breast = test system: BT-549 breast
HT29 colon = test system: HT29 colon
K-562 leukemia = test system: K-562 leukemia
T-47D breast = test system: T-47D breast
A498 renal = test system: A498 renal
SNB-19 CNS = test system: SNB-19 CNS
MDA-MB-435 = test system: MDA-MB-435
RPMI-8226 leukemia = test system: RPMI-8226 leukemia
IGROV1 ovarian = test system: IGROV1 ovarian
CCRF-CEM leukemia = test system: CCRF-CEM leukemia

## COc1cc(-c2ccc(=O)oc2C#Cc2ccccc2)cc(OC)c1OC
DU-145 prostate
  GI50: 28.3 µM
  TGI: > 100 µM
SF-295 CNS
  GI50: 11.2 µM
  TGI: 35.5 µM
LOX IMVI melanoma
  GI50: 1.57 µM
  TGI: > 100 µM
COLO 205 colon
  GI50: 34.1 µM
  TGI: > 100 µM
HL-60(TB) leukemia
  GI50: 8.56 µM
  TGI: > 100 µM
MALME-3M melanoma
  GI50: > 100 µM
  TGI: > 100 µM
OVCAR-4 ovarian
  GI50: > 100 µM
  TGI: > 100 µM
KM12 colon
  GI50: 34.6 µM
  TGI: > 100 µM
CAKI-1 renal
  GI50: 27.4 µM
  TGI: > 100 µM
UO-31 renal
  GI50: 9.1 µM
  TGI: > 100 µM
MOLT-4 leukemia
  GI50: 13.2 µM
  TGI: > 100 µM
PC-3 prostate
  GI50: > 100 µM
  TGI: > 100 µM
A549 NSCLC
  GI50: 3.22 µM
  TGI: 91.1 µM
SNB-75 CNS
  GI50: 12.1 µM
  TGI: 32.6 µM
SW-620 colon
  GI50: 13.3 µM
  TGI: > 100 µM
SK-OV-3 ovarian
  GI50: 28.5 µM
  TGI: 92.9 µM
SK-MEL-5 melanoma
  GI50: 3.49 µM
  TGI: > 100 µM
ACHN renal
  GI50: 14.8 µM
  TGI: 90.2 µM
786-0 renal
  GI50: 32.6 µM
  TGI: > 100 µM
HS 578T breast
  GI50: 6.02 µM
  TGI: 48.4 µM
U251 CNS
  GI50: 8.09 µM
  TGI: 34.4 µM
HOP-92 NSCLC
  GI50: 16.1 µM
  TGI: 39.2 µM
UACC-62 melanoma
  GI50: 11.6 µM
  TGI: > 100 µM
MDA-MB-231 breast
  GI50: 12.4 µM
  TGI: 35.8 µM
OVCAR-3 ovarian
  GI50: 36.4 µM
  TGI: > 100 µM
HCT-15 colon
  GI50: 13.8 µM
  TGI: > 100 µM
SF-268 CNS
  GI50: 12.7 µM
  TGI: > 100 µM
OVCAR-5 ovarian
  GI50: > 100 µM
  TGI: > 100 µM
HCT-116 colon
  GI50: 1.66 µM
  TGI: > 100 µM
HCC-2998 colon
  GI50: > 100 µM
  TGI: > 100 µM
M14 melanoma
  GI50: 48.9 µM
  TGI: > 100 µM
HOP-62 NSCLC
  GI50: 19 µM
  TGI: 66.8 µM
RXF 393 renal
  GI50: 0.945 µM
  TGI: 19.9 µM
NCI-H23 lung
  GI50: 36.9 µM
  TGI: > 100 µM
SR leukemia
  GI50: 2.4 µM
  TGI: > 100 µM
OVCAR-8 ovarian
  GI50: 52.5 µM
  TGI: > 100 µM
EKVX NSCLC
  GI50: 83.4 µM
  TGI: > 100 µM
NCI-H522 lung
  GI50: 44.5 µM
  TGI: > 100 µM
SN12C renal
  GI50: 15.9 µM
  TGI: > 100 µM
TK-10 renal
  GI50: 29 µM
  TGI: > 100 µM
NCI-H226 lung
  GI50: 22.8 µM
  TGI: > 100 µM
NCI/ADR-RES ovarian
  GI50: > 100 µM
  TGI: > 100 µM
SK-MEL-28 melanoma
  GI50: 26.7 µM
  TGI: > 100 µM
UACC-257 melanoma
  GI50: 56.7 µM
  TGI: > 100 µM
NCI-H460 lung
  GI50: > 100 µM
  TGI: > 100 µM
SK-MEL-2 melanoma
  GI50: 23.2 µM
  TGI: > 100 µM
SF-539 CNS
  GI50: 12.7 µM
  TGI: > 100 µM
BT-549 breast
  GI50: 19.2 µM
  TGI: 63.4 µM
HT29 colon
  GI50: 16.6 µM
  TGI: > 100 µM
K-562 leukemia
  GI50: 86.1 µM
  TGI: > 100 µM
T-47D breast
  GI50: 45.2 µM
  TGI: > 100 µM
A498 renal
  GI50: 30.4 µM
  TGI: 70.6 µM
SNB-19 CNS
  GI50: 29.9 µM
  TGI: 93.3 µM
MDA-MB-435
  GI50: 14.6 µM
  TGI: > 100 µM

## CN(C)CCOc1ccc2[nH]c(C(=O)N3CC(CCl)c4ccc(N)cc43)cc2c1 (stereo not drawn)
RPMI-8226 leukemia
  TGI: 1.14 µM
OVCAR-4 ovarian
  TGI: 0.46 µM
KM12 colon
  TGI: 0.294 µM
CAKI-1 renal
  TGI: > 100 µM
UO-31 renal
  TGI: > 40.7 µM
MOLT-4 leukemia
  TGI: 0.0565 µM
A549 NSCLC
  TGI: > 40.3 µM
IGROV1 ovarian
  TGI: > 67.6 µM
SW-620 colon
  TGI: > 100 µM
SK-OV-3 ovarian
  TGI: > 100 µM
SK-MEL-5 melanoma
  TGI: 0.261 µM
ACHN renal
  TGI: 1.07 µM
786-0 renal
  TGI: 5.48 µM
CCRF-CEM leukemia
  TGI: 0.975 µM
HOP-92 NSCLC
  TGI: 4.18 µM
OVCAR-3 ovarian
  TGI: 0.653 µM
HCT-15 colon
  TGI: 20.7 µM
SF-268 CNS
  TGI: 1.01 µM
OVCAR-5 ovarian
  TGI: 18.2 µM
HCT-116 colon
  TGI: 12.9 µM
HCC-2998 colon
  TGI: 0.823 µM
M14 melanoma
  TGI: 1.39 µM
HOP-62 NSCLC
  TGI: 0.69 µM
NCI-H23 lung
  TGI: 0.341 µM
SR leukemia
  TGI: > 100 µM
OVCAR-8 ovarian
  TGI: > 35.8 µM
EKVX NSCLC
  TGI: 5.92 µM
NCI-H522 lung
  TGI: 0.0683 µM
SN12C renal
  TGI: > 22.3 µM
SK-MEL-28 melanoma
  TGI: 3.21 µM
SF-539 CNS
  TGI: > 100 µM
BT-549 breast
  TGI: 0.612 µM
K-562 leukemia
  TGI: > 100 µM
T-47D breast
  TGI: > 100 µM
SNB-19 CNS
  TGI: 21.8 µM
